Bounds are passed on as bounds.

Consider `O=C1CCC(N2Cc3c(OCc4ccc(F)c(F)c4)cccc3C2=O)C(=O)N1` (stereo not given), for which the melting point (commonly the temperature of the solid-liquid transition) was in the range of 228 to 230 °C.
`COC(=O)/C=C\C(=O)Nc1ccc2c(=O)n3c(nc2c1)C(=Cc1ccccc1)CC3` had a melting point of 233 to 235 °C.
For the compound `Cc1ncoc1C(C)(O)c1ccccc1` (stereo not given), the melting point was 102 to 104 °C.
The value for `Cc1cc(-c2ccc(C(F)(F)F)cc2)nc(-c2cccc(-c3ccc(S(N)(=O)=O)s3)c2)n1` was 225 °C.
`CC(COc1cccc2ccccc12)Nc1ccc(C(=O)O)cc1` (stereo not given) gave a melting point of 194 to 197 °C.
With `CC(C)(C)CNc1nc(C(=O)C(=O)c2ccccc2)ccc1[N+](=O)[O-]`, the melting point was in the range of 88 to 90 °C.
As for `COc1ccc2c(=O)c(-c3ccc(F)cc3)c(-c3ccc(S(N)(=O)=O)cc3)oc2c1`, the melting point was found to be 245 °C.
The compound `CCN(CC)CCNC(=O)c1cc(Cl)c(N)cc1OCCSC` yielded a melting point of 118 to 120 °C.
The value for `Cc1cc(N2CCN(Cc3ccc(C(F)(F)F)cc3)C2=O)sc1C(=O)NCc1cccnc1` was 102 to 104 °C; that for `O=S1(=O)NCN(C2CCCCC2)c2cc(Cl)c(Cl)cc21` was 207 to 209 °C; that for `CCOc1ccc(Cc2cn(C3OC(COC(C)=O)C(OC(C)=O)C(OC(C)=O)C3OC(C)=O)c3cccc(F)c23)cc1` (stereo not given) was 146 to 148 °C.
Compound `CC(C)Oc1ccc(CCCOc2cc(CCC(=O)O)n(-c3ccccc3)n2)c(Oc2ccc(Cl)cc2Cl)n1` displayed a melting point of 60 to 62 °C.
With `O=C(O)COc1ccc(C2=CC(=O)CC(c3ccc(F)cc3)C2)c(Cl)c1Cl` (stereo not given), the melting point lay within 190 to 192 °C.
`Nc1nc2c(c(=O)[nH]1)n(CC(=O)c1ccc(Cl)cc1)c(=O)n2C1OC(CO)C(O)C1O` (stereo not given) displayed a melting point above 230 °C.
The value for `CNC(=O)[C@H](C)C[C@H](O)[C@H](CC1CCCCC1)NC(=O)OC(C)(C)C` was 144 to 145 °C; that for `CNC(=O)Cn1c(-c2ccc(Br)cc2)nc2cccnc21` was 258 to 259 °C; that for `COC(=O)C=C1CCCCC1c1cc(OC)cc(OC)c1` (stereo not given) was 80 to 81 °C.
Compound `COc1cc(F)cnc1OCC#Cc1ccc(Cl)nc1` yielded a melting point of 101 to 102 °C.
`CCC(C)(C)NC1=NS(=O)(=O)c2sc(Cl)cc2N1`: the melting point lay in the range of 359 to 360 °C.
`COc1ccc(-c2nc3nccnc3[nH]2)c(OCC#N)c1` gave a melting point of 232 to 233 °C.
In turn, `O=C(Nc1ccc(C(F)(F)F)nc1C1CCN(CC=Cc2ccc(Cl)cc2)CC1)c1ccnc(Cl)c1` gave a melting point of 134 to 135 °C.
With `Cc1cc2c(c(C=O)c1C)C(C)(C)CCC2(C)C` the figure was 74 to 80 °C; with `CCCc1nc(C(OCC)OCC)cc(NC(c2ccccc2)(c2ccccc2)c2ccccc2)c1F`, 111 to 112 °C; with `CCOc1ccc(Br)c(Cl)c1F`, 48 to 48.5 °C.
With `O=S(=O)(NCCc1cccc(CCNS(=O)(=O)c2ccc(Cl)cc2)c1)c1ccc(Cl)cc1` the figure was 135 to 136 °C; with `COC(=O)Cc1ccc(CN2CCN(C(c3ccccc3)c3ccc(Cl)cc3)CC2)cc1` (stereo not given), 113 to 115 °C.
The value for `Cc1nc(C)c(Cl)c(NCc2nccc(SCCCSc3sccc3[N+](=O)[O-])c2C)n1` was 174 to 180 °C; that for `COc1cc2c(O)c3c4c(ccnc4c2cc1OC)CCC3` was 218 °C; that for `O=C(NNc1ccccc1)c1ccccc1O` was 259 °C.
Turning to `OCc1nnc2n1-c1ccc(Cl)cc1C(c1ccccc1Cl)=NC2`, the melting point lay in the range of 236 to 239 °C.
`Nc1nc(Nc2ccccc2)sc1C(=O)c1c(Cl)cccc1Cl`: the melting point was 245 to 246 °C.
`COc1cc2c(c(Cl)c1Cl)C(=O)C(C1CCCC1)C2` (stereo not given) came in with a melting point of 116 to 117 °C.
The value for `O=C(NN1CCN(CCc2c[nH]c3ccccc23)CC1)c1ccccc1` was 227 to 229 °C; that for `Cc1nn(C)c2nc(N)nc(N)c2c1=O` was above 275 °C.
Compound `CCOC(=NC(=O)c1ccc(Cl)c(Cl)c1)N1Cc2ccccc2-c2ccccc2C1` had a melting point of 138 °C.
The compound `N#Cc1ccc(-c2cnc(F)c(OC3SCC(O)C(O)C3O)c2)cc1` (stereo not given) showed a melting point of 220 °C.
With `CCOc1ccccc1C(=O)C=Cc1ccc2ccccc2c1` the figure was 96 to 97 °C.
In turn, `CCCCN(C(=O)C(=O)O)c1cccc(NC(=O)C(=O)O)c1` returned a melting point of 232 °C.
With `CCCc1nn(C)c2c(=O)n(CCNc3ccc(SC(C)(C)C(=O)OCC)cc3)c(CC)nc12` the figure was 105 to 107 °C; with `COc1ccc(-c2cc3ccc(OC)cc3n2C)cc1`, 163 to 166 °C; with `CC(=O)c1ccc(OC2CCOCC2)cc1O`, 99 to 104 °C.
With `CCOC(=O)N1CCc2c(sc3nc(-c4ccc(F)cc4)cn23)C1`, the melting point is 164 to 166 °C.
The compound `COc1cc(Cc2cnc(NCCSCc3cc(CN(C)C)ccn3)[nH]c2=O)ccn1` returned a melting point of 65 to 74 °C.
The compound `CCC(O)CN1N=C(c2ccccc2)CC(O)C1=O` (stereo not given) returned a melting point of 92 to 94 °C.
Regarding `COc1ccc(N2CCN(c3c(C)c(C)c4c(c3C)C(c3ccco3)C(C)(C)O4)CC2)cc1` (stereo not given), the melting point lay within 110 to 111 °C.
The compound `N=C(NC1CC1)c1cc2c(cn1)[nH]c1ccccc12` had a melting point of 253 °C.
Regarding `CC1(C)OC(C=Cc2ccoc2)=CC1=O`, the melting point fell in the range of 79 to 80 °C.
With `Cn1ccnc1Sc1ccc(Cl)cc1[N+](=O)[O-]` the figure was 143 to 145 °C.
The value for `C=C(C(=O)c1ccccc1)c1cccnc1` was 113 to 114 °C.
The compound `COc1ccc2c(c1O)C13CCNC(C2)C1CC(C)C(=O)C3` (stereo not given) showed a melting point of 163 to 165 °C.
Compound `O=S1(=O)N=C(NC2CCCC2)Nc2cc(Cl)sc21` had a melting point of 291 to 292 °C.
As to `OC(COc1ncnc2nc[nH]c12)CN1CCN(C(c2ccccc2)c2ccccc2)CC1` (stereo not given), the melting point was determined as 115 °C.
As to `COc1c(F)cc(Cn2cnnc2S)cc1F`, the melting point lay in the range of 124 to 126 °C.
The value for `COc1cc2ccc(CC(=S)N3CCOCC3)cc2c(C)c1OC` was 100 to 103 °C; that for `COc1cc(OC)cc(N2CCN(C(=O)Nc3nc(C)c(C)nc3OC)CC2)c1` was 136 to 137 °C.
With `CCCN(CCC)CC1CCCN(CCNC(=O)N2c3ccccc3NC(=O)c3c2ccn3C)C1` (stereo not given) the figure was 153 to 155 °C.
`COc1cc2c(cc1OCc1ccccc1)CCN(Cc1ccc(C#N)cc1)C2` registered a melting point of 161 to 162 °C.
In turn, `CCOC(=O)C1=C(C)NC(C)=C(C(=O)OCC)C1c1ccc(F)cc1` displayed a melting point of 150 to 151 °C.
In the case of `O=C(NC1CN2CCC1CC2)c1ccc2[nH]ccc2c1` (stereo not given), the melting point was 293 to 295 °C.
Compound `CCn1c(=O)c2c(nc(/C=C/c3ccc4c(c3)OCCO4)n2C)n(CC)c1=O` had a melting point of 233 to 234 °C.
The value for `O=C1N(Cc2ccccn2)c2cccc(Br)c2C12COc1cc3c(cc12)CCO3` (stereo not given) was above 200 °C; that for `CCOC(=O)/C=C/c1cn(Cc2ccc(OCc3ccccc3)cc2)nc1-c1ccccc1` was 94 to 95 °C.
`COc1cc2cc(CO)c(CO)c(-c3cccc(Br)n3)c2cc1OC` registered a melting point of 107 to 108 °C.
With `O=C(O)c1c(O)ccc2ccccc12` the figure was 218 °C.
`CCCCCCCCCCCCNC(=O)CC(Br)C(=O)O` (stereo not given) registered a melting point of 62 to 70 °C.
As to `CCCCCCC1([N+](=O)[O-])C=CC(C(=O)O)=CC1` (stereo not given), the melting point was 106 to 108 °C.
`COC(=O)c1ccc(-c2nc(CCl)c(C)o2)cc1` returned a melting point of 130 to 131 °C.
`CCOC(=O)c1c(Cl)nc2ccccc2c1CCl`: the melting point is above 260 °C.
For the compound `O=C(Nc1ccc(-n2nc(C(F)(F)F)cc2Br)cc1)c1ccncc1F`, the melting point lay in the range of 143 to 144 °C.
Compound `COc1nc2ncnn2c(N2CCC(C)CC2)c1-c1ccc(F)cc1Cl` displayed a melting point of 186 °C.
In the case of `Cc1ccc(CN2CCN(CCCOc3ccc4[nH]c(=O)cc(C)c4c3)CC2)cc1`, the melting point lay in the range of 162 to 163 °C.
The compound `CN1C(=O)C2(CCNCC2)c2ccccc21` registered a melting point of 146 to 151 °C.
With `CNC(=O)[C@@H](C[C@H](O)[C@H](CC(C)C)NC(=O)OC(C)(C)C)C(C)(C)O` the figure was 121 to 123 °C.
As to `CC1(C)Cc2c(N)c(Cl)cc(C(=O)NC3CCN(CCCC4(C)OCCO4)CC3)c2O1`, the melting point stood at 136 °C.
With `CC(C)CNC(=O)C(C)NC(=O)C(C)NC(=O)C(C)NC(=O)CCC(=O)O` (stereo not given) the figure was 283 to 286 °C; with `CC(C)(C)OC(=O)NNC(=N)C(Cl)(Cl)Cl`, 150 °C.
With `CCOCCc1nc(NS(=O)(=O)c2cccc(Cl)c2C)sc1CN(C)C` the figure was 152 to 153 °C; with `O=C(N[C@@H](CCC1CCCCC1)[C@@H](O)[C@@H](O)CN1CCOCC1)OCc1ccccc1`, 124 to 125 °C.
Turning to `COC(=O)[C@@](C#N)(COCc1ccccc1)[C@H](c1ccccc1OC)c1cccc2ccccc12` (relative stereo), the melting point is 133 to 134 °C.
`Cc1ccc(N)c(C(=O)NCC(C)Cn2ccnc2)c1` (stereo not given): the melting point was 120 to 122 °C.
The value for `O=C(O)CCC1CCN(C(=O)OCc2ccc([N+](=O)[O-])cc2)CC1` was 98 to 99 °C.
For `CN(C)CCCN(C=O)C1CCC2C3CCc4ccccc4C3CCC21C` (stereo not given), the melting point fell in the range of 123 to 125 °C.
The value for `Cn1nnc(-c2cccc(Oc3cccc(C(F)(F)F)c3)n2)n1` was 58 to 61 °C; that for `CCN(CC)c1ccc(C(=O)C(C)(C)N2CCOCC2)cc1` was 86 to 89 °C.
The value for `CCOC(=O)C=Cc1ccc(OC)c2c1CC1(CCCC1)O2` was 81 to 91 °C; that for `CNc1nc(-c2cccc(-c3cncc(SC)c3)c2)c2cc(OC)c(OC)cc2n1` was 184 to 186 °C.
As for `Cc1ccc(C(=O)Nc2ccccc2)cc1[N+](=O)[O-]`, the melting point is 147 to 148 °C.
As to `COc1cc2c(c(Cl)c1Cl)C(=O)C(c1ccccc1)(c1ccccc1)C2`, the melting point is 172 to 174 °C.
The value for `COc1cc(OC)nc(C2(Cl)OC(=O)c3ncccc32)n1` (stereo not given) was 146 to 148 °C; that for `Cc1ccc(-c2nc(CCl)cs2)s1` was 89 to 90 °C.

The values are drawn from a melting point compilation (Tetko et al.; mined from patent text by program, amines drawn as free bases though some values may be those of a salt).
